{"source": "ChEMBL document CHEMBL5725854", "about": "“Inhibitors of protein methyltransferase DOT1L and methods of use thereof” (2018)", "target": "Histone-lysine N-methyltransferase, H3 lysine-79 specific (Homo sapiens) (UniProt Q8TEK3)", "sequence (Q8TEK3 whole entry, looked up)": "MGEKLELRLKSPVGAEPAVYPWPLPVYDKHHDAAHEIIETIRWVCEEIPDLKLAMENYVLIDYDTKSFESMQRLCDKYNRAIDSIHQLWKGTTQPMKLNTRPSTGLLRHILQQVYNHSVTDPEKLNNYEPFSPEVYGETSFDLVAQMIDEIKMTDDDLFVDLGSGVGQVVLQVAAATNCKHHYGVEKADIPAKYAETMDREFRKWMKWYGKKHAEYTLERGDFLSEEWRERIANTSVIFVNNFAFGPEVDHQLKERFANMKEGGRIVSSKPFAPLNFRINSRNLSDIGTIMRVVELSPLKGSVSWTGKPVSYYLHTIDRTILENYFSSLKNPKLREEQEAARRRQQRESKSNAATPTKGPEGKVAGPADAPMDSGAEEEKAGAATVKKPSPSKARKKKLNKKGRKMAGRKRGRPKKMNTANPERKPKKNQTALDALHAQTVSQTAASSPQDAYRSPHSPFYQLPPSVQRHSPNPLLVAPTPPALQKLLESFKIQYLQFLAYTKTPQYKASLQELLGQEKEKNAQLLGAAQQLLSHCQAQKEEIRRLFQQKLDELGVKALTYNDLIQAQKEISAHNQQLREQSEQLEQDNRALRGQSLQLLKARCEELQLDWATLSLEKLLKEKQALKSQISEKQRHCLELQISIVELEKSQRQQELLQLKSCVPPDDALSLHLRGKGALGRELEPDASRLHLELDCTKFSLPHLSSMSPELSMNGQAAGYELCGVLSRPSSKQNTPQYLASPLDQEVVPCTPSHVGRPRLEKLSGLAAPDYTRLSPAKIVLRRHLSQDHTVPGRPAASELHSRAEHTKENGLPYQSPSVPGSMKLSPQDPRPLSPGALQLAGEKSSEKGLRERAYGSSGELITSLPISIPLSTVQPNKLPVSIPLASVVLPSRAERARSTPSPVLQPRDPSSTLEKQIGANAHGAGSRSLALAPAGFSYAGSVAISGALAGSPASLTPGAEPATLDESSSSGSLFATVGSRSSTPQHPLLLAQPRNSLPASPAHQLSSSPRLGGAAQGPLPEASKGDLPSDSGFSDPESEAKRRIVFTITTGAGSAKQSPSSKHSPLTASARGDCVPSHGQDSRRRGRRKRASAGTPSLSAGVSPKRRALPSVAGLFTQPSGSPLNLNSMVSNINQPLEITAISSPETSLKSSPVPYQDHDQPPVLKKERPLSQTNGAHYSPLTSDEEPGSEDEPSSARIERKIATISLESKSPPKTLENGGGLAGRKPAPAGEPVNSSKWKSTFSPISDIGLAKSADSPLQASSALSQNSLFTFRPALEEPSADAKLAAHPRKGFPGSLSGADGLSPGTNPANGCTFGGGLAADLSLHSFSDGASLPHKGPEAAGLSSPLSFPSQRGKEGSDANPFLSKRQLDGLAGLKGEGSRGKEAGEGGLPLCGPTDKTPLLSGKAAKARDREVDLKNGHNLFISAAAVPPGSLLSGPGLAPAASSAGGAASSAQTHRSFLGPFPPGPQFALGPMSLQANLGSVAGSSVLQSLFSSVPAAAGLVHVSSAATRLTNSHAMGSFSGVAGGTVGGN"}
{"smiles": "Nc1ncnc2c1ncn2[C@@H]1O[C@H](CSCC[C@H](N)OC=O)[C@@H](O)[C@H]1O", "values": [{"measurement": "k off", "value": 0.1, "unit": "s⁻¹"}]}
